Test results from US7816096B2, “Assay solution compositions and methods for GPCR arrays” (priority 2003, dated 2010).

Assays:
[1] = molecular target: T1, muscarinic receptor subtype 1 (M1) (Homo sapiens, UniProt P11229); test: multiplexed competitive binding assay on GPCR microarray; conditions: 1 uM unlabeled telenzepine; cocktail of labeled ligands incl. 2 nM Cy3B-telenezepine
T1 sequence (P11229 1-460): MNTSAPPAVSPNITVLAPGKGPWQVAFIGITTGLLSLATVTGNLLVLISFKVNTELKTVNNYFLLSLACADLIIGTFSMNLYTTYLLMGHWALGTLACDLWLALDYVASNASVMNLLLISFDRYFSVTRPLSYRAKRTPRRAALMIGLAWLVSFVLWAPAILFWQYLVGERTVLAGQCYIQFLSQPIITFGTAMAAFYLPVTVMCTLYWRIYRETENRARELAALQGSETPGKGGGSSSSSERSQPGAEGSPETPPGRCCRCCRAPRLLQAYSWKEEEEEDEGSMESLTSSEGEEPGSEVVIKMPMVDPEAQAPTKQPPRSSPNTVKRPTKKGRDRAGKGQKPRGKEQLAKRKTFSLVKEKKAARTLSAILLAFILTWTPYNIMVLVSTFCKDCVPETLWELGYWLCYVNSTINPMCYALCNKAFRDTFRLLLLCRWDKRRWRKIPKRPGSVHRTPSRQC
Description: FIGS. 2C & 2D, respectively, are graphs of the percent of total detected signal in the presence and absence of 1 μM telenzepine.
A single buffered binding solution composition, according to the invention—including for example, 50 mM Tris-HCl, pH 7.4, 10 mM MgCl2, 1 mM EDTA, 0.1 wt. % BSA—is used for multiplexed competitive binding assay. […] Telenzepine is an antagonist for M1 receptor alone.
(§1) For the binding assays, each individual array was incubated with 10 μl of a solution containing labeled ligand(s) at a particular concentration in the absence and presence of varying amounts (0-1000 nM) of unlabeled compounds. The binding buffer used for all experiments was Tris-HCl (50 mM, pH 7.4) containing 10 mM MgCl2, 0.1% BSA and 1 mM EDTA.
(§2) After executing the binding assays, the microarrays are washed and dried, and then examined using Genepix scanner 4000 (Axon Instruments, Union City, Calif.). Using Genepix software, resulting data is analyzed. Each data point in the plots represents the average of at least three replicate micospots. Using non-linear regression analysis (Graphpad PRISM, Graphpad Software Inc., San Diego, Calif.), one can estimate Kd and IC50.

NTR1 = NTR1 (Rattus norvegicus, UniProt P20789); conditions: cited from earlier work
Chain of NTR1 (P20789 whole entry): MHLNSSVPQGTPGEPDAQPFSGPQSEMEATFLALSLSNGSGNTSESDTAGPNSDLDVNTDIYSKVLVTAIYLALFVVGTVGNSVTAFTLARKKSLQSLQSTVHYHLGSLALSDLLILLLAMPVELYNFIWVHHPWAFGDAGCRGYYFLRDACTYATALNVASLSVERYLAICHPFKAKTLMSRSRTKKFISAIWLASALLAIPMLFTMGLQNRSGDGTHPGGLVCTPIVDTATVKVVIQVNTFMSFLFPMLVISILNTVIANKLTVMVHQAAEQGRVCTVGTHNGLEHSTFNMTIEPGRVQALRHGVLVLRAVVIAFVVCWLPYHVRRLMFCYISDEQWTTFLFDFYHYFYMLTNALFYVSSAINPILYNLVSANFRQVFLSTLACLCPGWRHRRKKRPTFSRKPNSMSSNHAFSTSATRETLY

[2] = molecular target: neurotensin receptor Subtype-1 (NTR1) (Homo sapiens, UniProt P30989); conditions: 100 mM NaCl present or absent; 2 nM Bodipy-TMR-neurotensin 2-13
Chain of neurotensin receptor Subtype-1 (NTR1) (P30989 whole entry): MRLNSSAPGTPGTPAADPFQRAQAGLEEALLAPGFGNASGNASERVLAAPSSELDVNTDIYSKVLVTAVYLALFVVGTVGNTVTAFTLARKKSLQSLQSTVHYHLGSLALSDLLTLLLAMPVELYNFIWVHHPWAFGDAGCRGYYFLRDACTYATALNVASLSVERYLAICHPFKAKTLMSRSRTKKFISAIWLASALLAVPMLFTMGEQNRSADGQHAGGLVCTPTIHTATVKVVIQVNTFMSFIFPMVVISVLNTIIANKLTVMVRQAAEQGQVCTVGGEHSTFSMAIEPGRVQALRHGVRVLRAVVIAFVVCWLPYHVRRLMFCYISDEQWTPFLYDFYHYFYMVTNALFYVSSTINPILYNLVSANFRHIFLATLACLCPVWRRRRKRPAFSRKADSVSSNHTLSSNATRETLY
Description: as §1, §2

Compound: Cc1scc2c1N(C(=O)CN1CCN(C)CC1)c1ccccc1NC2=O [telenzepine]
- inhibition of the binding of labeled ligands to M1 receptors [1]: specific and selective inhibition

Compound: [Na+] [sodium ions]
- IC50 (NTR1; read-out: IC50 for inhibition of binding of radio-labeled neurotensin to NTR1): 18 mM
- inhibition of binding of radio-labeled neurotensin to NTR1 (NTR1; sodium ions at a concentration as low as about 20 mM): at least 50%

Compound: [Cl-].[Na+] [NaCl]
- effect on binding of BT-NT to NTR1 (total binding signal) [2]: strongly influences
